Experimental data taken from ChEMBL document CHEMBL1201862, “PubChem BioAssay data set” (2004).
Activity calls are given as the source filed them.

Assays:
[1] = biological target: Glucose-6-phosphate 1-dehydrogenase (Homo sapiens, UniProt P11413); test: inhibition of Homo sapiens G6PD, dose series – biochemical, fluorescence, selectivity assay for P. falciparum G6PD inhibitor project, dose response (AID 504792); type: functional
[2] = viability of PTEN-deleted HCT116 cells – cell-based, HCT116 PTEN knockout, dose response (AID 1047); type: functional;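 further: HCT116 colon tumor cells with PTEN knocked out; cells exposed to compound for 60 hours before readout; potency for loss of cell viability measured by luminescence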
Estrogen receptor beta = Estrogen receptor beta (Homo sapiens, UniProt Q92731);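 further: recombinant ER-beta bound to coactivator SRC1 peptide in presence of estradiol agonist; inhibitors block coactivator peptide binding and lower the FRET signal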
Sequence of Estrogen receptor beta (Q92731 whole entry): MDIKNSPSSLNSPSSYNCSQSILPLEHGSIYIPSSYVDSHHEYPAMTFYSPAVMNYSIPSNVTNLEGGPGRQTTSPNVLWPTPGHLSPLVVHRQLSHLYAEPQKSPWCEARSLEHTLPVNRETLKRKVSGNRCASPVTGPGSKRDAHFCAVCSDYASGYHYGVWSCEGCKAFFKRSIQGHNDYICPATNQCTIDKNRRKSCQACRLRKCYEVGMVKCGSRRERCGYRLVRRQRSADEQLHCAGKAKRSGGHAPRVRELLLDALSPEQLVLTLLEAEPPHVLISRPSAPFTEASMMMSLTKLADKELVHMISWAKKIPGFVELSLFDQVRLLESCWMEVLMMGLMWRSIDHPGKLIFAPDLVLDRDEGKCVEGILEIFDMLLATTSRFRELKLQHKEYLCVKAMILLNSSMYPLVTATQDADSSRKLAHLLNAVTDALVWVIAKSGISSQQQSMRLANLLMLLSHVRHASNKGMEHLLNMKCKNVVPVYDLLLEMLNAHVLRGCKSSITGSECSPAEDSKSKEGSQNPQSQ

[3] = viability of HCT116 lacking mutant beta-catenin – cell-based, human colon tumor, dose response (AID 1045); type: functional;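 further: HCT116 colon tumor cells with beta catenin knocked out; cells exposed to compound for 60 hours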
INS1 = test: INS-1E survival protection against cytokine death – cell-based, luminescence, retest, dose response (AID 449756); type: functional; details: Rattus norvegicus;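 further: cell death triggered by IL-1 beta plus TNF-alpha plus IFN-gamma mixture; protective hits raise ATP signal compared with cytokine alone wells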
[4] = biological target: T1, Apoptotic protease-activating factor 1 (Homo sapiens, UniProt O14727); type: functional
T1 sequence (O14727 whole entry): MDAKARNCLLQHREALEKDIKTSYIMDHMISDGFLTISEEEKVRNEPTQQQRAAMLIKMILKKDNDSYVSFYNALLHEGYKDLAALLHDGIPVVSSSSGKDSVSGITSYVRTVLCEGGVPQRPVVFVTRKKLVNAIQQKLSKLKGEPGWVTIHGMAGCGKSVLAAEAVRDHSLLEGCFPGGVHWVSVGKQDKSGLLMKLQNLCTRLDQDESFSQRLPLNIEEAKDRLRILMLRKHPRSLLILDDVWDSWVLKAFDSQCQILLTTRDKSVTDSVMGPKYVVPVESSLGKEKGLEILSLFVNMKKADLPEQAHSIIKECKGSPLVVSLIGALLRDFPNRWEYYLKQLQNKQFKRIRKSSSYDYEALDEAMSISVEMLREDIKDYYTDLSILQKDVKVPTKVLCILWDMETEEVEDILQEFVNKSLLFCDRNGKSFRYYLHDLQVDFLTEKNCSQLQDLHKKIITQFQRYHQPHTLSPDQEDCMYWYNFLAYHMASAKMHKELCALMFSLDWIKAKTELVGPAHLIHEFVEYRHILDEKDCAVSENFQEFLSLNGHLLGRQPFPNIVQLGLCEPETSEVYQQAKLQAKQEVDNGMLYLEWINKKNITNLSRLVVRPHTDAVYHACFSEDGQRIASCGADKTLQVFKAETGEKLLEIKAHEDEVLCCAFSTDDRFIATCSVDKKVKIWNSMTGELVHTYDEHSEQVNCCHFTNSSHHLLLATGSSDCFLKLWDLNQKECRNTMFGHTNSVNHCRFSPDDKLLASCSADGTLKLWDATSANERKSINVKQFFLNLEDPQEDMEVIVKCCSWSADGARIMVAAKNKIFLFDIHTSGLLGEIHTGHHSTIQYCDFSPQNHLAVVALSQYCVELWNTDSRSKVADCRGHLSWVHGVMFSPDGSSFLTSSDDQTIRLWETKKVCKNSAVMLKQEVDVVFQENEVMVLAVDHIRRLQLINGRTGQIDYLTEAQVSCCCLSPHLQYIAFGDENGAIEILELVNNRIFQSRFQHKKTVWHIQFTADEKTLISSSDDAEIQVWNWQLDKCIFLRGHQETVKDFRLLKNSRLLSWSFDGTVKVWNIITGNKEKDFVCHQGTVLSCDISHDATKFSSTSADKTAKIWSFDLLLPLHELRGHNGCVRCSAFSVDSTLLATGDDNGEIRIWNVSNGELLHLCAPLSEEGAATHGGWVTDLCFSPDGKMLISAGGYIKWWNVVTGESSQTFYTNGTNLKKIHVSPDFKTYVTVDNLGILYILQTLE

Streptococcus = test: GAS UMAA2166 growth inhibition – luminescence, BacTiterGlo, counter-screen for streptokinase expression inhibitor project, dose response (AID 1915); type: functional, organism-based;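 further: potency for reduction of bacterial viability or growth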
Protein RecA = biological target: T2, Protein RecA (Mycobacterium tuberculosis, UniProt P9WHJ3); test: Fluorescence Cell-Free Homogeneous Dose Retest to Identify Inhibitors of RecA-Intein Splicing Activity. [Related pubchem assays (depositor defined):AID2097, AID2223, AID489010, AID492950]; type: functional
T2 sequence (P9WHJ3 whole entry): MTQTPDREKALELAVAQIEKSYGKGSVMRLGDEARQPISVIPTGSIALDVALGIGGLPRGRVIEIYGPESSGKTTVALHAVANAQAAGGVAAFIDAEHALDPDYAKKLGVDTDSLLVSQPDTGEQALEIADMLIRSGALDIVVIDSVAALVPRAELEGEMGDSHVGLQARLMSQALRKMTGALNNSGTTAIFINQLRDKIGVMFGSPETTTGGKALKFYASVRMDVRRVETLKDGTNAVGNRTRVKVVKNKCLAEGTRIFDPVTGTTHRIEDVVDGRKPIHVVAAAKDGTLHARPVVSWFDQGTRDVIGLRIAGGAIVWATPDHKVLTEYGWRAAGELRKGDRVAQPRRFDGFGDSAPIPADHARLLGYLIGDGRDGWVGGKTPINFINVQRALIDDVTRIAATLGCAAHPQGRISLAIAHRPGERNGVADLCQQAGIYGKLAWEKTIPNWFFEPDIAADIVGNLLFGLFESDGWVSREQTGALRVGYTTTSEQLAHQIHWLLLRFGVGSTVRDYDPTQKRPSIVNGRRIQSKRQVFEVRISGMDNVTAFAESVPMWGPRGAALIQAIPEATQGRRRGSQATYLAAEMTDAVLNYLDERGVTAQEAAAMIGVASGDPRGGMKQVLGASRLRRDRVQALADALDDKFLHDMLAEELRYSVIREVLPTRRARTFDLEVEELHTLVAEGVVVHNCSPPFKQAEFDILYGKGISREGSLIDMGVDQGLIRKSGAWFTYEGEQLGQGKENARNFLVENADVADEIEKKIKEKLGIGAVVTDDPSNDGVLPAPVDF

[5] = biological target: T3, Heat shock factor protein 1 (Mus musculus, UniProt P38532); test: decrease of HSF1-responsive luciferase luminescence – cell-based, NIH3T3, dose retest, confirmation (AID 2382); type: functional;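 further: NIH3T3 fibroblasts with HSF1-driven luciferase reporter stressed by proteasome inhibitor MG132; luminescence from HSF1-driven luciferase expression after 8 hours of MG132 stress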
T3 sequence (P38532 whole entry): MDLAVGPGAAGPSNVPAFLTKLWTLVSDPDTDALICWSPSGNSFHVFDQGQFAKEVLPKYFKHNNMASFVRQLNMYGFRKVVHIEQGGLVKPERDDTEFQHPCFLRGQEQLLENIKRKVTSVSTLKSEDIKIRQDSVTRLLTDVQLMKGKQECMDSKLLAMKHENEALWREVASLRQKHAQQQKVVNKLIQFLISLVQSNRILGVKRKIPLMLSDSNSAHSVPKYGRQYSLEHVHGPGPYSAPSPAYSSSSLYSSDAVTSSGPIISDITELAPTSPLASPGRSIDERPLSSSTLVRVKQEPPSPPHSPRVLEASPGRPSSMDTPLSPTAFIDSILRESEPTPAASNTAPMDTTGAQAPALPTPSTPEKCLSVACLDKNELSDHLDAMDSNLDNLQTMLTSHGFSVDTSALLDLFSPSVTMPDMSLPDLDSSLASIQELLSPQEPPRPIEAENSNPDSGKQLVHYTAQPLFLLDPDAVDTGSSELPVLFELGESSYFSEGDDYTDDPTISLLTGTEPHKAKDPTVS

Sequence of Glucose-6-phosphate 1-dehydrogenase (P11413 whole entry): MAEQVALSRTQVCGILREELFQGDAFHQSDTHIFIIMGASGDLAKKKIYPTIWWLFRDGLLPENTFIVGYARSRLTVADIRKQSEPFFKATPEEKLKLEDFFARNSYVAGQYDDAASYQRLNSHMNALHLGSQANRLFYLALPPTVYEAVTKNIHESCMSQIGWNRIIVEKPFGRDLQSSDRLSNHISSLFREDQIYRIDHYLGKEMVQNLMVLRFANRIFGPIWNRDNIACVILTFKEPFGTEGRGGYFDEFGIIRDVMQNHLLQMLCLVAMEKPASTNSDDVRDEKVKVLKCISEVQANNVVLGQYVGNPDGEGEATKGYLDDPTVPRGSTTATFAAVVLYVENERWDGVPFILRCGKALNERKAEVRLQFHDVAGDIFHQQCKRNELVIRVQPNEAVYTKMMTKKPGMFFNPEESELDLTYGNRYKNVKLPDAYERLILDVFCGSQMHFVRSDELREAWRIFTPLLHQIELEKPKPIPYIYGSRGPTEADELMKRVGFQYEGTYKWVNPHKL

For COc1ccc(C(=O)c2c(C(F)(F)F)oc3c2C(=O)c2ccccc2C3=O)cc1, the IC50 [1] was > 80 µM (inactive), the EC50 [2] was 2.81 µM (active) and the IC50 (Estrogen receptor beta) was > 50 µM (not active). The EC50 [3] was 2.55 µM (active), the AC50 (INS1) was 1.38 µM (active) and the IC50 [4] was 5.29 µM (active). For the same compound, the EC50 (Streptococcus) was 4.92 µM (active), the EC50 (Protein RecA) was 0.0825 µM (active) and the EC50 [5] was 2.67 µM (active).
